From US20150141375A1 (priority 2009, published 2015)
Several values for one entry are separate records, joined by “and”; a condition that tells them apart may be missing. Identical values can stand only once. Entries after “also recorded” stand apart in the source; their conditions may differ.

What was measured:
Adenovirus [1] = assay: In vitro activity against Adenovirus (HFF; AdV 5); type: cell-based
BK Virus [2] = assay: In vitro potency against BK Virus in WI-38 cells; type: cell-based
BK Virus [3] = assay: BK virus replication in RPTECs, viral DNA by qPCR after 5 days; type: cell-based; conditions: Betapolyomavirus hominis, RPTEC
Description: To test the ability of CMX001 to inhibit replication of BK virus, stocks of BK virus were prepared in HFF cells and dilutions of the virus stocks were used to infect primary human renal tubular epithelial cells (RPTECs). Drug dilutions were then added to the wells containing the infected cells and the plates were incubated for 5 days. Total DNA was prepared from the plates and viral DNA was quantified by qPCR.

BKV(Dunlop) = BKV(Dunlop) replication in primary human RPTECs (qPCR, RT-qPCR, western blot, immunofluorescence); type: cell-based, BK virus; conditions: for antiviral activity of stored stock compared to freshly prepared drug: tested at 0.31 uM
Description: RPTECs were infected with BKV(Dunlop). CMX001 was added before and 2 h postinfection (hpi). Cells and supernatants were harvested 24-72 hpi. BKV replication was examined by TaqMan assays, western blotting, IF staining and viability of RPTECs was examined by WST-1 assay, BrdU incorporation and a TaqMan assay.
Primary human renal proximal tubule epithelial cells (RPTECs), BKV(Dunlop) and all methods as previously described by Bernhoff et al (See Bernhoff et al., Cidofovir inhibits polyomavirus BK replication in human renal tubular cells downstream of viral early gene expression, Am J Transplant 8, 1413-1422 (2008).) Only one exception, quantitative PCR (qPCR) to quantify intracellular or extracellular BKV DNA load was performed with a different primer/probe set also targeting the LTag gene (See Hirsch, et al., J. Prospective study of polyomavirus type BK replication and nephropathy in renal-transplant recipients, N Engl J Med., 347, 488-496 (2002)). Before each experiment, CMX001 was freshly dissolved to 1 mg/ml in methanol/water/ammonium hydroxide (50/50/2). It was further diluted in RPTEC growth medium.
Before each experiment, CMX001 was freshly dissolved to 1 mg/ml in methanol/water/ammonium hydroxide (50/50/2) and further diluted in RPTEC growth medium. About 50% confluent RPTECs were infected with BKV (Dunlop) MOI 1. After 2 h incubation at 37° C., the virus was replaced with fresh medium with or without CMX001 unless otherwise stated.
At 24, 48 and 72 hpi cells were lysed and total RNA extracted using the mirVana PARIS kit (Ambion). RNA samples were treated with DNase turbo (Ambion) to remove residual DNA before the RNA quality was checked by agarose gel electrophoresis and RNA concentration was determined. cDNA was generated from 250 ng RNA per sample using the High Capacity cDNA kit (Applied Biosystems).
To assay extracellular BKV loads, cell culture supernatants were harvested at 24, 48 and 72 hpi and frozen in −70° C. until automatic extraction by a robot (GenoM-48, Qiagen, www.qiagen.com). For intracellular BKV loads, cells were washed, trypsinized and pelleted at 220 g for 10 min, resuspended in G2 buffer from the MagAttract DNA Mini M48 kit (Qiagen) and frozen at −70° C. until extraction with the same robot.
To quantify intracellular or extracellular BKV DNA load, a quantitative PCR (qPCR) with primers and probe targeting the large T-antigen (LT-ag) gene was used. For normalization of intracellular BKV DNA each sample was analyzed in parallel by the qPCR for the gene for aspartoacylase (ACY) to correct for cellular DNA.
Cells were lysed in Cell Disruption buffer (mirVana PARIS kit, Ambion) 24, 48 and 72 hpi and stored at −70° C. until separation with SDS polyacrylamidegel electrophoresis (SDS-PAGE) followed by blotting onto PVDF membrane. Detection of BKV and cellular proteins was performed with polyclonal rabbit antiserum directed against LT-ag (1:2000), VP1 (1:10000), or agno (1:10000) (1, 27) and a monoclonal mouse antibody directed against GAPDH (Ab8245; 1:5000, Abcam, www.abcam.com) followed by anti-rabbit and anti-mouse infrared dye-labeled secondary antibodies (IR Dye 800, Rockland, www.rockland-inc.com and Alexa Fluor 680, Invitrogen, www.invitrogen.com) both 1:5000 before detection with Licor Odyssey Infrared detection system.
Cells were washed in PBS, methanol fixed, blocked with 3% goat-serum in PBS for 30 min, followed by subsequently incubation with primary (37° C.) and secondary (r.t.) antibodies for 30 min. Primary antibodies were monoclonal anti-SV40 LT-ag antibody (Ab-2 Pab416; 1:100, Chemicon, www.chemicon.com) and polyclonal rabbit antiserum directed against agno or VP1 (both 1:1000). The secondary antibodies were anti-mouse conjugated with AlexaFluor 568 and anti-rabbit conjugated with AlexaFluor 488 (1:500; Molecular Probes, www.invitrogen.com). Nuclei were labeled with DRAQ5™ (Biostatus, www.biostatus.com). […]

Adenovirus [4] = assay: microbe, parasite or virus in culture; type: cell-based; conditions: for EC50: unidentified adenovirus
vaccinia virus = type: in vivo, human; conditions: detectable while on ST-246 and VIG
JCV = assay: First fifteen EIND patients: JCV; type: in vivo, human; conditions: one patient

CCCCCCCCCCCCCCCCOCCCOP(=O)(O)CO[C@H](CO)Cn1ccc(N)nc1=O [CMX001, Hexadecyloxypropyl-cidofovir]
Enhanced Activity (Adenovirus [1]; CMX001 versus cidofovir EC50): 65 | IC50 (Adenovirus [1]; unidentified adenovirus): 20 nM | EC50 (Adenovirus [1]; unidentified adenovirus, HFF): 20 nM | EC50 (BK Virus [2]; Betapolyomavirus hominis, WI-38): 130 nM | selectivity index (SI)-50 (BK Virus [2]; WI-38, cells harvested 7 days after infection): 113 | EC50 (BK Virus [3]; Virus Dilution 1:10): 16 nM | EC50 (BK Virus [3]; Virus Dilution 1:50): 3.5 nM | EC50 (BK Virus [3]; Virus Dilution 1:100): 3.7 nM | BKV-infected cells, immunofluorescence (BKV(Dunlop); 10 μM CMX001, 72 hpi): no BKV-infected cell was observed | IC90 (BKV(Dunlop); Betapolyomavirus hominis, RPTEC, RPTECs, 72 h p.i., viral input subtracted, read-out: IC90, extracellular BKV load): 310 nM | reduction of late protein expression (BKV(Dunlop); CMX001 0.31 μM): about 70% | reduction of BKV load at 96 hpi (BKV(Dunlop); CMX001 0.31 μM for 24 h): approximately 90% | effect on early gene (LT-ag) expression (BKV(Dunlop); CMX001 0.31 μM, 24 hpi): no effect; also recorded: No difference | reduction of late gene expression (BKV(Dunlop); CMX001 0.31 μM, 48 and 72 hpi): 70-90% | reduction of BKV DNA replication (intracellular BKV load) (BKV(Dunlop); CMX001 0.31 μM, 48 hpi): 94% and 90% | reduction of LT-ag mRNA (BKV(Dunlop); CMX001 0.31 μM, 48 hpi): 33% | reduction of agno, western blotting (BKV(Dunlop); CMX001 0.31 μM, 48 hpi): 97% | reduction of late mRNA levels (BKV(Dunlop); CMX001 0.31 μM, 48 hpi): 93% | reduction of BKV DNA replication (intracellular BKV load) (BKV(Dunlop); CMX001 0.31 μM, 72 hpi): 63% and 91% | reduction of LT-ag mRNA (BKV(Dunlop); CMX001 0.31 μM, 72 hpi): 64% | reduction of agno, western blotting (BKV(Dunlop); CMX001 0.31 μM, 72 hpi): 96% | reduction of late mRNA levels (BKV(Dunlop); CMX001 0.31 μM, 72 hpi): 82% | decrease of VP1, western blotting (BKV(Dunlop); CMX001 0.31 μM, 48 h p.i.): 86% and 85% | reduction of LTag staining (BKV(Dunlop); CMX001 0.31 μM, 48 h p.i.): 33% | decrease of VP1, western blotting (BKV(Dunlop); CMX001 0.31 μM, 72 h p.i.): 63% and 96% | reduction of LTag staining (BKV(Dunlop); CMX001 0.31 μM, 72 h p.i.): 30% | decrease in BKV agnoprotein expressing cells (BKV(Dunlop); CMX001 0.31 uM, immunofluorescence 72 h p.i.): approximately 60% | exposure time for IC-90 of BKV progeny loads at 96 hpi (BKV(Dunlop); CMX001 0.31 μM, CDV 40 μg/mL): 24 h | reduction of viral load by pre-treatment (BKV(Dunlop); pre-treatment 23-24 h until one hour before infection, BKV load 72 h p.i.): about 50% | effect of pre-treatment on BKV load (BKV(Dunlop); pre-treatment 4 hours, ending 20 hours before infection): hardly any effect; also recorded: did not inhibit BKV replication | antiviral activity of stored stock compared to freshly prepared drug (BKV(Dunlop); stock 1 mg/ml one week at 4° C.): less than 60% | antiviral activity of stored stock compared to freshly prepared drug (BKV(Dunlop); stock 1 mg/ml one week at −20° C.): approximately 90% | fold more activity compared to cidofovir (Adenovirus [4]; AdV 31): 5 fold | EC50 (Adenovirus [4]; AdV 31): 280 nM | EC50 (Adenovirus [4]; majority of adenovirus serotypes): < 50 nM | viable vaccinia in lesions (vaccinia virus): Eliminated | JCV in cerebrospinal fluid (CSF) and urine (JCV): became undetectable
